Assay results: patent US4427661A, “Fluorinated cyclic hexapeptide somatostatin analogs” (Merck & Co., Inc., priority 1982, dated 1984)

Columns and labels:
[1] = system: growth hormone release; assay: Growth Hormone--in vitro: growth hormone release inhibition in cultured rat pituitary cells; type: cell-based; conditions: multiples or fractions of the effect of somatostatin (=1), 4 hours incubation
Experimental: Rat pituitaries were isolated according to the procedures of Vale and Grant "In vitro Pituitary Hormone Secretion Assay for Hypophysioprivic Substances" in Methods in Enzymology. Vol.XXXVII,eds. O'Malley, B. W. and Hardman, J. G. (Academic Press, Inc., New York) pp. 5-93 (1975).
After 4 days in culture, the cells were washed and incubated for 4 hours in Dulbecco modified Eagle's medium in the presence or absence of graded doses of each analog or somatostatin. The medium was then collected for subsequent growth hormone determination by a double antibody radioimmunoassay for rat growth hormone.

[2] = system: insulin; assay: Insulin inhibition in vivo: portal vein insulin in anesthetized rats; design: species or system rat; conditions: multiples or fractions of the effect of somatostatin (=1), via external jugular vein, portal vein blood after 5 minutes
Experimental: Analogs of somatostatin were compared to somatostatin in their ability to decrease the levels of portal vein glucagon and insulin in anesthetized rats. Male Sprague-Dawley rats (Charles River CD) weighing 160-200 g were anethetized with urethane (150 mg/100 g of body weight; Aldrich). Saline or peptides were administered via the external jugular vein. After 5 minutes, the portal vein was exposed, and blood was collected via syringe containing 3 mg of EDTA and placed in chilled tubes containing 100 μl of Trasylol (FBA Pharmaceuticals) for subsequent hormone analysis. Plasma levels of glucagon were determined by the method of Faloona and Unger, Methods of Hormone Radioimmunoassay, Jaffe and Behrman (Eds), Academic Press, New York, Vol. II, pp. 257-527 (1976), utilizing glucagon antisera 30K obtained from R. Unger (Dallas, Tx). Plasma levels of insulin were determined by a modification of the procedure of Herbert et al., J. Clin. Endocrinol. Metab., 25, 1375-1384 (1965).

[3] = system: pentagastrin evoked gastric secretion; assay: Inhibition of pentagastrin evoked gastric secretion in the chronic fistula dog; type: in vivo; conditions: Dose 0.8 μg/ml./min., infusion 0-60 min, relative to placebo trial
Experimental: Compounds were tested for their ability to inhibit pentagastrin evoked gastric secretion in the chronic fistula dog. Female beagle dogs with a chronic gastric fistula were given pentagastrin (2.5 μg./kg./hour, i.v. from -60 to 120 min.) and gastric outputs were collected via the fistula cannula. Samples were analyzed at 30 minute intervals for volume (ml.) and titratable acid (mEq/L) (Titration to pH 7 with 0.01 N NaOH); total acid output (mEq) was calculated as the production of output volume and acid concentration. Test compounds were infused at a constant rate from 0 to 60 minutes. Data have been expressed as percent change of total acid output relative to a placebo trial in the same animals.

C[C@H](N)C(=O)NCC(=O)N[C@H]1CSSC[C@@H](C(=O)O)NC(=O)[C@H](CO)NC(=O)[C@H]([C@@H](C)O)NC(=O)[C@H](Cc2ccccc2)NC(=O)[C@H]([C@@H](C)O)NC(=O)[C@H](CCCCN)NC(=O)[C@H](Cc2c[nH]c3ccccc23)NC(=O)[C@H](Cc2ccccc2)NC(=O)[C@H](Cc2ccccc2)NC(=O)[C@H](CC(N)=O)NC(=O)[C@H](CCCCN)NC1=O [Somatostatin]
Growth Hormone Release Inhibition In Vitro [1]: 1
Insulin Inhibition In Vivo [2]: 1
Gastric Secretion % Inhibition Acid Concentration 0-30 ([3]; interval 0-30 min): 16%
Gastric Secretion % Inhibition Vol. 0-30 ([3]; interval 0-30 min): 85%
Gastric Secretion % Inhibition Acid Concentration 30-60 ([3]; interval 30-60 min): 77%
Gastric Secretion % Inhibition Vol. 30-60 ([3]; interval 30-60 min): 97%
Gastric Secretion % Inhibition Acid Concentration 60-90 ([3]; interval 60-90 min): 61%
Gastric Secretion % Inhibition Vol. 60-90 ([3]; interval 60-90 min): 81%
Gastric Secretion % Inhibition Acid Concentration 90-120 ([3]; interval 90-120 min): 14%
Gastric Secretion % Inhibition Vol. 90-120 ([3]; interval 90-120 min): 37%
